Test results: patent publication US12358892B2, “Metalloenzyme inhibitors for treating cancers, Alzheimer's disease, hemochromatosis, and other disorders” (Miralogx LLC, priority 2020, dated 2025)

Assays:
B cells = assay: BioMAP proliferation readout, B cells; assay type: cell-based, human; settings: 100 μM, 33 μM, 11 μM
Text: (§1) The X-axis lists the quantitative protein-based biomarker readouts measured in each system. The Y-axis represents a log-transformed ratio of the biomarker readouts for the drug-treated sample (n=1) over vehicle controls (n≥6). The grey region around the Y-axis represents the 95% significance envelope generated from historical vehicle controls. Biomarker activities are annotated when two or more consecutive concentrations change in the same direction relative to vehicle controls, are outside of the significance envelope, and have at least one concentration with an effect size >20% (|log 10 ratio|>0.1). Biomarker key activities are described as modulated if these activities increase in some systems, but decrease in others. […] As summarized in Table 2 below, the compound was active with 35 annotated readouts. […]
(§2) Human primary cells in BioMAP® systems are used at early passage (passage 4 or earlier) to minimize adaptation to cell culture conditions and preserve physiological signaling responses. […] Test agents prepared in either DMSO (small molecules; final concentration ≤0.1%) or PBS (biologics) are added at the indicated concentrations 1-hr before stimulation, and remain in culture for 24-hrs or as otherwise indicated (48-hrs, MyoF system; 72-hrs, BT system (soluble readouts); 168-hrs, BT system (secreted IgG)). […]

fibroblasts = assay: BioMAP proliferation readout, fibroblasts; assay type: cell-based, human; settings: 100 μM
Text: as §1, §2

[1] = test system: human primary endothelial cells; assay: BioMAP proliferation readout, endothelial cells; assay type: cell-based; settings: 100 μM, 33 μM, 11 μM
Text: as §1, §2

C1=NC(c2cncc(C3CCC=N3)c2)CC1 (stereo not drawn) [3,5-bis(3,4-dihydro-2H-pyrrol-2-yl)pyridine]
antiproliferative: antiproliferative effect on B cells (B cells) | antiproliferative effect on fibroblasts (fibroblasts) | antiproliferative effect on human primary endothelial cells [1]
